Laboratory results as given in patent publication US11957646B2, “Methods and compositions of stable phenylephrine formulations” (Paragon BioTeck, Inc., priority 2013, dated 2024).

Tests used:
[1] = test system: vasopressor effect of (−)-epinephrine, (−)-norepinephrine, and tetraethylammonium; details: anesthetized rats, infusion of large amount; cited from earlier work
[2] = Chiral purity by chiral HPLC before and after 6 months storage at 2 to 8° C.; format: physicochemical; details: 10% solution
Procedure: Column-OJ-RH (150×4.6) mm, Flow: 0.6 ml min-1, Mobile Phase: 0.05% Ethylenediamine in Methanol, Column Temp: 25° C.; Detection wavelength: 270 nm. 4.0 mg sample in 1 mL ethanol was analyzed. The injection volume to HPLC is 3.0 μL.
R-Phenylephrine Hydrochloride Opthalmic Solution, 2.5% and 10% prepared as in Example 1 were stored at 2 to 8° C. The chiral purity of Sample 1 (10% solution) was assessed before low temperature stability test.
The chiral purity of R-Phenylephrine Hydrochloride was determined by the method and conditions as shown in Example 3.

rabbit pupil = experiment: Dilation assay of R and S form phenylephrine solutions on rabbits; format: in vivo, NZW rabbits; details: 10% solution, 3 drops, versus untreated eye
Procedure: Two ophthalmic formulations, formulated 10% Phenylephrine hydrochloride (S-isomer) and the exemplary invention composition, 10% Phenylephrine hydrochloride (R-isomer) were tested for their ocular activity in NZW rabbits.
Both R and S form solutions (10% solution prepared as in Example 1) were test for dilation on rabbits. The first test rabbit received 3 drops of the S form formulation and the second test rabbit received 3 drops of the R form solution.

Row | Structure (SMILES) | tachyphylaxis to vasopressor effect [1] | further results
1 | CNCCc1ccc(O)c(O)c1 [epinine] | induces tachyphylaxis | 
2 | CNCC(O)c1ccc(O)c(O)c1 (single isomer, unassigned; (+)) [(+)-epinephrine] | induces tachyphylaxis | 
3 | CNC[C@H](O)c1cccc(O)c1.Cl [R-Phenylephrine Hydrochloride, (R)-3-hydroxy-α-[(methylamino)methyl]benzenemethanol hydrochloride] |  | chiral purity before storage ([2]; before low temperature stability test): 99.3 % ee; chiral purity after 6 months storage ([2]; stored at 2 to 8° C. for 6 months): 99.3 % ee
4 | CNC[C@@H](O)c1cccc(O)c1 [S-Phenylephrine] | induces tachyphylaxis | pupil dilation (rabbit pupil): dilated the eye only slightly more than that was untreated
5 | CNC[C@H](O)c1cccc(O)c1 [(−)-phenylephrine] | induces tachyphylaxis | 
6 | NCC(O)c1ccc(O)c(O)c1 (single isomer, unassigned; (+)) [(+)-norepinephrine] | induces tachyphylaxis | 
